The results in this text go back to publication PMC9916770, “Lycorine Carbamate Derivatives for Reversing P-glycoprotein-Mediated Multidrug Resistance in Human Colon Adenocarcinoma Cells” (International Journal of Molecular Sciences, 2023).

Usually IC50 stands for the point on the concentration scale where inhibition reaches its midpoint.

SMILES strings stand for the structures.

Data set [1] deals with Colo205 cells. Nature of the data set: MTT antiproliferative assay, sensitive cells. Particulars: for IC50: Homo sapiens, COLO 205, sensitive Colo205, MTT, 72 h, mean ± SD; for SI (selectivity index) C/A: IC50 MRC-5 / IC50 Colo205. Format: cell-based, human. As to the method:
(§1) The human colon adenocarcinoma cell lines Colo205 doxorubicin-sensitive (CCL-222, ATCC, Manassas, VA, USA) and the resistant Colo320/MDR-LRP expressing P-gp were purchased from LGC Promochem (Teddington, UK). The MRC-5 human embryonal lung fibroblast cell line (CCL-171, ATCC) was purchased from Sigma-Aldrich (Merck KGaA, Darmstadt, Germany). The human colon adenocarcinoma cells (Colo205 and Colo320) were cultured in an RPMI 1640 medium supplemented with 10% fetal bovine serum (FBS), 2 mM L-glutamine, 1 mM Na-pyruvate, and 100 mM HEPES. The semi-adherent human colon cancer cells were detached with a trypsin-Versene (EDTA) solution for 5 min at 37 °C. The MRC-5 human embryonal lung fibroblast cells were cultured in EMEM containing 4.5 g/L of glucose and supplemented with a non-essential amino acid mixture, a selection of vitamins, and 10% FBS. The cell lines were incubated at 37 °C, 5% CO2, and 95% air atmosphere.
(§2) The antiproliferative effect of the compounds was tested in decreasing serial dilutions of compounds (starting with 100 µM, then two-fold serial dilution) on human cell lines (Colo205, Colo320, and MRC-5) in 96-well flat-bottomed microtiter plates. Firstly, the compounds were diluted in 100 µL of the medium, and then 6 × 10^3 cells (Colo205 and Colo320), in 100 µL of medium, were added to each well, excluding the medium control wells. The MRC-5 adherent cell line was seeded in the EMEM medium for at least 4 h before the assay. The two-fold serial dilutions of the compounds were made in a separate plate (100–0.19 μM) and then transferred to the plates containing the adherent corresponding cell line. Culture plates were incubated at 37 °C for 72 h, and at the end of the incubation period, 20 μL of MTT (thiazolyl blue tetrazolium bromide) solution (from a 5 mg/mL stock solution) was added to each well and incubated for an additional 4 h. Then, 100 μL of sodium dodecyl sulfate (SDS) solution (10% SDS in 0.01 M HCl) was added to each well, and the plates were further incubated at 37 °C overnight in a CO2 incubator. Cell growth was determined by measuring the optical density (OD) at 540/630 nm with a Multiscan EX ELISA reader (Thermo Labsystems, Cheshire, WA, USA). […] IC50 values and the standard deviation (SD) of triplicate experiments were calculated by using GraphPad Prism 5 software for Windows. Doxorubicin (2 mg/mL, Teva Pharmaceuticals, Budapest, Hungary) was used as a positive control and the vehicle DMSO as the negative control. (1) IC50=[ODsample−ODmedium control/ODcell control−ODmedium control]×100
(§3) The relative resistance (RR) was calculated as the ratio of the IC50 value in the resistant cancer cells and the IC50 in the sensitive cancer cell lines. The selectivity indexes (SI) were calculated as the ratio of the IC50 values in the non-tumor cells and the IC50 in the cancer cell lines. The activity of the compounds toward cancer cells is considered strongly selective if the selectivity index (SI) value is higher than 6, moderately selective if 3 < SI < 6, slightly selective if 1 < SI < 3, and non-selective if SI is lower than 1.
Background: Tetrazolium dyes change colour on reduction, which living cells bring about.

The subject of data set [2] is Colo320 cells. Briefly: MTT antiproliferative assay, resistant cells. Particulars: for IC50: Homo sapiens, COLO 320, resistant Colo320, MTT, 72 h, mean ± SD, read-out: IC50 Colo320 (B); for SI (selectivity index) C/B: IC50 MRC-5 / IC50 Colo320; for RR (relative resistance ratio) B/A: IC50 resistant Colo320 / IC50 sensitive Colo205. Format: cell-based, human. As to the method:
as §1, §2, §3

The test system of data set [3] is MRC-5 cells. Briefly: MTT antiproliferative assay, normal lung fibroblasts. Format: cell-based. Particulars: Homo sapiens, normal embryonal lung fibroblasts, 72 h, mean ± SD, read-out: IC50 MCR-5 (C). As to the method: as §1, §2, §3
The subject of data set [4] is Colo320 cells. Briefly: Checkerboard drug combination assay with doxorubicin. Format: cell-based, human. Particulars: for Type of interaction: Colo320; for CI at IC50 (combination index): Colo320, 50% growth inhibition. As to the method: The interaction of lycorine (1) and some selected derivatives (2, 5, 9, 13, 16, 19, 25, and 26) in combination with the chemotherapeutic drug doxorubicin was performed by the checkerboard assay, a widely used technique for assessing drug interactions, in resistant human Colo320 colon adenocarcinoma cells. The type of drug–drug interaction was evaluated by using the Chou and Talalay method for drug combination and expressed using the combination index (CI) values, and therefore evaluated as synergism (CI < 1), additive (CI = 1), or antagonist (CI > 1).
Drug combination interactions between the compounds and the chemotherapeutic drug doxorubicin were assessed by the checkboard microplate assay on the resistant Colo320, expressing the P-gp transporter. Doxorubicin was serially diluted in the horizontal direction in 100 µL, starting with 8.6 µM, and the compounds were subsequently diluted in the vertical direction in 50 µL. The starting concentration was determined based on the IC50 values. The cells were resuspended in a culture medium and distributed into each well in 50 µL, containing 6 × 10^3 cells, to a final volume of 200 µL per well. The plates were incubated for 72 h at 37 °C in a CO2 incubator, and the cell growth was determined by the MTT staining method, as described previously. Drug interactions were evaluated using CompuSyn software to plot 4 or 5 data points for each ratio (ref software). The results were expressed in terms of combination index (CI) values of 50% growth inhibition, in which a CI value close to 1 indicates additivity, while a CI < 1 is defined as synergy, and a CI > 1 as antagonism.

The target of data set [5] is T1, recombinant human P-gp membranes (Homo sapiens, UniProt P08183).
T1 construct: purchased Promega
Briefly: P-gp-Glo ATPase activity assay. Format: biochemical. Particulars: 25 µM, basal activity = 100%. As to the method:
To evaluate the type of interaction between selected compounds and P-gp, namely to determine if they interacted as stimulators or inhibitors, the ATPase activity assay (P-gp.Glo^TM) was performed, using human P-gp membranes. This assay is based on the ATP consumption necessary for the efflux, obtained from ATP hydrolysis by light-generating firefly luciferase reaction. […] Vanadate is a selective and strong P-gp inhibitor. Therefore, the compounds can be classified as inhibitors or stimulators/substrates by comparing P-gp ATPase activity with the basal activity; stimulators give results higher than 100%, while inhibitors result below 100% of the basal activity. […] The results are presented in Figure 2 as the difference between the luciferase luminescence observed when treated with the tested compounds and with vanadate and compared with the basal activity (100%).
The P-glycoprotein ATPase assay was assessed using the P-gp-Glo^TM Assay System (Promega, WI, USA). The assay was performed according to the manufacturer’s instructions. Briefly, 20 µL of recombinant human P-gp membranes (1.25 mg/mL), expressing high levels of human P-gp, were incubated in 20 µL of P-gp-Glo^TM assay buffer for 5 min at 37 °C. […] The reaction was initiated by adding 10 µL of 25 mM MgATP, and incubated at 37 °C for 40 min. The reaction was stopped after adding 50 µL of ATP Detection Reagent, and the samples and controls were incubated at room temperature for 20 min. The emitted luciferase-generated luminescent signal was measured in a CLARIOstar Plus plate reader (BMG Labtech, Ortenberg, Germany) at 580 nm. The relative ATPase activity was calculated based on the ratio between the luminescence measured of the P-gp ATPase activity of each compound and the basal P-gp ATPase activity according to Equation (3): (3) Relative ATPase activity= Lumtreated−Lumuntreated /LumNa3VO4/Lumuntreated

T1 sequence (P08183 whole entry): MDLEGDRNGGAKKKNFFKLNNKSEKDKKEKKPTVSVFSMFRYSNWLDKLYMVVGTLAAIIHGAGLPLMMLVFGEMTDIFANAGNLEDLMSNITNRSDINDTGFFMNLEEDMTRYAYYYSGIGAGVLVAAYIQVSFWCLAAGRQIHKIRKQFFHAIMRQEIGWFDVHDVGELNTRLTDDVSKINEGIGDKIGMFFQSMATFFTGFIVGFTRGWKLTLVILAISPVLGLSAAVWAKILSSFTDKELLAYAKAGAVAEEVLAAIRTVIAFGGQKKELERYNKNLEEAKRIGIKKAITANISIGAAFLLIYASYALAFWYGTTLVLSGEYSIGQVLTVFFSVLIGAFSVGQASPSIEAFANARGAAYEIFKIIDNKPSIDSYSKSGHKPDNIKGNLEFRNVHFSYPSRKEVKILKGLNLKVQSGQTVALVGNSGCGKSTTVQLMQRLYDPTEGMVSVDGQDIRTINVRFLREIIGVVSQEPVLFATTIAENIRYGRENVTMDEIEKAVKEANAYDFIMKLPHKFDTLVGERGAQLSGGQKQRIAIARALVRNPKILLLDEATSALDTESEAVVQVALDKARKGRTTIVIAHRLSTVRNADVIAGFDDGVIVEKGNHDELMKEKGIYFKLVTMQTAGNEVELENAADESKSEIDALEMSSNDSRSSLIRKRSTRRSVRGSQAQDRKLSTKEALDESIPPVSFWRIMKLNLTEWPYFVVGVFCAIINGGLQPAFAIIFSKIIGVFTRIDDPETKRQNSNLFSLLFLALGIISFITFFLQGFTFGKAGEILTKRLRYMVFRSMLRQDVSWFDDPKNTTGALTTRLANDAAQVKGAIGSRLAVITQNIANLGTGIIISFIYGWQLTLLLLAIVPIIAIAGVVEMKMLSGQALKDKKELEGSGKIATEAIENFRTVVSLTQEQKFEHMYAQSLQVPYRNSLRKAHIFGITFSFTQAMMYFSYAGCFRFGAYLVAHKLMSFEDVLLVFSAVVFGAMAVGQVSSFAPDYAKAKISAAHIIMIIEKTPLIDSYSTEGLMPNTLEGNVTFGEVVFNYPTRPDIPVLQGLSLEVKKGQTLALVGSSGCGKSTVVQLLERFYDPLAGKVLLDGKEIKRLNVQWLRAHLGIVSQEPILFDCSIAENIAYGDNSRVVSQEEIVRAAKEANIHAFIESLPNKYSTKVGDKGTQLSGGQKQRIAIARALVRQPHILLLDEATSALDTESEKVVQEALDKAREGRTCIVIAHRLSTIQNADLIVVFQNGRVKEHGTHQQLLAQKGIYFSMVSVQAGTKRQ

With `O[C@H]1[C@H]2c3cc4c(cc3CN3CCC(=C[C@@H]1O)[C@H]23)OCO4` [Compound 1, lycorine], in data set [1], the midpoint of inhibition, the IC50, lay at 1.06 ± 0.02 µM and the “SI (selectivity index) C/A” value is recorded as 2.86. In addition, in data set [2], the IC50 stood at 0.93 ± 0.01 µM, the “SI (selectivity index) C/B” value came to 3.26 and the “RR (relative resistance ratio) B/A” value turned out to be 0.87. The IC50 in data set [3] was found to be 3.04 ± 0.11 µM. Also, the Type of interaction result in data set [4] is recorded as “Moderate antagonism”.
As to `O=C(NCc1ccc(Cl)cc1)OC1C=C2CCN3Cc4cc5c(cc4C(C1O)C23)OCO5` (stereo not shown) [Compound 2, Lycorine 2-yl (4-chlorobenzyl)carbamate], in data set [1], the IC50 is 19.3 ± 0.87 µM and the “SI (selectivity index) C/A” value is 3.01. Besides, in data set [2], the IC50 worked out at 40.4 ± 1.9 µM, the “SI (selectivity index) C/B” value was determined as 1.44 and the “RR (relative resistance ratio) B/A” value was found to be 2.09. Besides, in data set [3], the IC50 was 58.1 ± 0.83 µM. Moreover, in data set [4], the Type of interaction result was “Slight synergism” and the “CI at IC50 (combination index)” value is given as 0.88. Moreover, the “Effect on basal P-gp ATPase activity” value in data set [5] is recorded as “decreased the basal activity”.
Take `Cc1ccc(CNC(=O)OC2C=C3CCN4Cc5cc6c(cc5C(C2OC(=O)NCc2ccc(C)cc2)C34)OCO6)cc1` (stereo not shown) [Compound 5, Lycorine 1,2-diyl bis[(4-methylbenzyl)carbamate]]: in data set [1], the half-inhibitory concentration (IC50) was more than 100 µM and the “SI (selectivity index) C/A” value was less than 0.057. Besides, in data set [2], the IC50 came out at 32.7 ± 0.62 µM and the “SI (selectivity index) C/B” value was determined as 0.17. Further, the IC50 in data set [3] was determined as 5.75 ± 0.47 µM. For the same compound, in data set [4], the Type of interaction result is recorded as “Strong synergism” and the “CI at IC50 (combination index)” value was found to be 0.13. The “Effect on basal P-gp ATPase activity” value in data set [5] is given as “decreased the basal activity”.
For `O=C(NCCc1ccccc1)OC1C=C2CCN3Cc4cc5c(cc4C(C1OC(=O)NCCc1ccccc1)C23)OCO5` (stereo not shown) [Compound 9, Lycorine 1,2-diyl bis(phenethylcarbamate)], in data set [1], the IC50 was more than 100 µM and the “SI (selectivity index) C/A” value is given as less than 0.045. In data set [2], the IC50 is 10.4 ± 0.28 µM, the “SI (selectivity index) C/B” value is recorded as 0.43 and the “RR (relative resistance ratio) B/A” value is on record as less than 0.10. In data set [4], the Type of interaction entry is given as “Synergism” and the “CI at IC50 (combination index)” value is on record as 0.56. Further, the “Effect on basal P-gp ATPase activity” value in data set [5] was “decreased the basal activity”.
As to `O=C(OC1C=C2CCN3Cc4cc5c(cc4C(C1O)C23)OCO5)N1CCc2ccccc2C1` (stereo not shown) [Compound 13, Lycorine 2-yl 3,4-dihydroisoquinoline-2(1H)-carboxylate], the IC50 in data set [1] is 96.26 ± 0.33 µM; in data set [2], 78 ± 3.82 µM; in data set [3] it was more than 100 µM. The Type of interaction result in data set [4] is listed as “Synergism”. In data set [4], the “CI at IC50 (combination index)” value was determined as 0.69.
As for `O=C(OC1C=C2CCN3Cc4cc5c(cc4C(C1OC(=O)N1CCCCC1)C23)OCO5)N1CCCCC1` (stereo not shown) [Compound 16, Lycorine 1,2-diyl bis(piperidine-1-carboxylate)], in data set [1], the midpoint of inhibition, the IC50, lay at 55.4 ± 1.63 µM and the “SI (selectivity index) C/A” value is 1.06. Moreover, in data set [2], the IC50 is 26.6 ± 1.37 µM and the “SI (selectivity index) C/B” value is recorded as 2.22. For the same compound, in data set [3], the IC50 was 59.2 ± 4.82 µM. In data set [4], the Type of interaction entry is “Synergism” and the “CI at IC50 (combination index)” value is 0.57.
With `CC(C)(C)c1ccc(CNC(=O)OC2C=C3CCN4Cc5cc6c(cc5C(C2O)C34)OCO6)cc1` (stereo not shown) [Compound 19, Lycorine 2-yl [4-(tert-butyl)benzyl]carbamate], in data set [1], the IC50 came to 26.5 ± 0.476 µM and the “SI (selectivity index) C/A” value was 1.63. In data set [2], the IC50 came out at 7.64 ± 0.15 µM, the “SI (selectivity index) C/B” value is given as 5.66 and the “RR (relative resistance ratio) B/A” value is 0.28. Moreover, the IC50 in data set [3] came to 43.3 ± 0.75 µM. In data set [4], the Type of interaction entry is reported as “Slight synergism” and the “CI at IC50 (combination index)” value is 0.88. For the same compound, in data set [5], the “Effect on basal P-gp ATPase activity” value is on record as “decreased the basal activity”.
`O=C(NCCc1ccc(Cl)cc1)OC1C=C2CCN3Cc4cc5c(cc4C(C1OC(=O)NCCc1ccc(Cl)cc1)C23)OCO5` (stereo not shown) [Compound 25, Lycorine 1,2-diyl bis[(4-chlorophenethyl)carbamate]]: in data set [1], the midpoint of inhibition, the IC50, lay at 47.7 ± 1.35 µM and the “SI (selectivity index) C/A” value came to 0.099. In data set [2], the IC50 is 3.14 ± 0.05 µM, the “SI (selectivity index) C/B” value amounted to 1.51 and the “RR (relative resistance ratio) B/A” value is reported as 0.065. The IC50 in data set [3] was determined as 4.75 ± 0.08 µM. In data set [4], the Type of interaction result was “Synergism” and the “CI at IC50 (combination index)” value is given as 0.50. The “Effect on basal P-gp ATPase activity” value in data set [5] is listed as “decreased the basal activity”.
Take `O=C(NCCc1ccc(Cl)cc1)OC1C=C2CCN3Cc4cc5c(cc4C(C1O)C23)OCO5` (stereo not shown) [Compound 26, Lycorine 2-yl (4-chlorophenethyl) carbamate]: in data set [1], it took 53.9 ± 0.98 µM to reach half-maximal inhibition (IC50) and the “SI (selectivity index) C/A” value amounted to 0.96. In data set [2], the IC50 stood at 37.9 ± 1.37 µM and the “SI (selectivity index) C/B” value was 1.37. The IC50 in data set [3] came out at 52.1 ± 3.09 µM. Also, in data set [4], the Type of interaction entry is “Slight synergism” and the “CI at IC50 (combination index)” value is given as 0.88. In data set [5], the “Effect on basal P-gp ATPase activity” value is reported as “decreased the basal activity”.
